Consider 15 compounds from PubChem BioAssay AID2060908 (Molecular Pharmacology Branch, DTP, NCI, 2025).

In general, viability, T/C refers to the ratio of treated to control. The IC50 is the point on the concentration scale where inhibition reaches its midpoint.

Where “and” joins values, the source holds several entries; their conditions need not be identical. Equal entries are not always repeated.

This test concerns 186277-243-T-J2-PDC complex spheroids, viability. The test is described as follows: Anticancer human tumor 186277-243-T-J2-PDC patient-derived colon adenocarcinoma cell line growth inhibition [RAS]. As to conditions: for viability, T/C: stronger effect = lower value. The text has this: RAS pathway inhibitors in Combinations in Complex Spheroids
A high-throughput screen of multi-cell type tumor spheroids was designed to identify active combinations of RAS pathway inhibitors and targeted small molecules. Complex spheroids include a stromal component modeled by human endothelial cells (HUVEC) and fibroblasts modeled by human mesenchymal stem cells (MSCs). The concentration ranges selected for each drug and investigational agent were based upon clinically achievable concentrations if the clinical Cmax of the agent was known.
Compounds. The drugs and investigational agents: abemaciclib (NSC768073), cobimetinib (NSC768068), divarasib (GDC6063, NSC841802), docetaxel (NSC628503), GDC-1971 (RLY-1971, NSC841576), gemcitabine (NSC613327), inavolisib (NSC800729), ipatasertib (NSC767898), KB-0742 (NSC834161), MRTX-1133 (NSC836407), osimertinib (NSC779217), RMC-4630 (NSC839698), RMC-6236 (NSC851965), RMC-6291 (NSC852671), Ro-3306 (NSC812927), sapanisertib (NSC764658), SN-38 (NSC673596), staurosporine (NSC755774), SY5609 (NSC837396), and tovorafenib (DAY101, NSC766906), were obtained from the National Cancer Institute (NCI) Developmental Therapeutics Program Chemical Repository. The FDA-approved anticancer drug set is available from the NCI Developmental Therapeutics Program. […] The stock solutions were prepared in dimethyl sulfoxide (DMSO, Sigma-Aldrich, St. Louis, MO, cat. D2650) at 800-fold the tested concentration and stored at -70 degrees C prior to their use. All drugs and investigational agents were tested over a range starting from a high concentration at or near the clinical Cmax and decreasing in half-log increments. If the clinical Cmax for an agent had not been determined, the highest concentration tested was 10 microM.
Cell Culture. All cells were maintained in an incubator at 37 degrees C and 5% CO2 with 95% humidity. The PDC lines were cultured according to standard operating procedures established by the NCI PDMR. All PDCs were thawed and cultured in Matrigel-coated flasks prepared with a working solution of 1X Ham's F-12 nutrient mix, without supplementation (Invitrogen, Waltham, MA, cat. 11765054), 100 U/mL penicillin-streptomycin (Invitrogen, cat. 15140122), and 2.5% Matrigel (Corning Inc., Corning, NY, cat. 354248) for the first three passages. The 362531-283-R-J2-PDC and 782815-120-R-J1-PDC lines were cultured in 6C/Colon 1B media, which includes advanced DMEM/F-12 (Thermo Fisher Scientific, cat. 12634028), 10 mM HEPES (Thermo Fisher Scientific, cat. 15630080), 1X GlutaMAX supplement (Thermo Fisher Scientific, cat. 35050061), 0.1 mg/mL primocin (InvivoGen, San Diego, CA, cat. ant-pm-2), 10% defined fetal bovine serum, heat inactivated (HyClone Laboratories Inc., Logan, UT, cat. SH30070.03HI), 50% L-WRN conditioned media (ATCC, cat. CRL-3276), 1.25 mM N-Acetyl-L-cysteine (Sigma-Aldrich, cat. A9165), 10 mM nicotinamide (Sigma-Aldrich, cat. N0636), 1X B-27 supplement (Thermo Fisher Scientific, cat. 17504044), 1X N-2 supplement (Thermo Fisher Scientific, cat. 17502048), 50 ng/mL human EGF (Thermo Fisher Scientific, cat. PHG0311), and 10 microM Y-27632 dihydrochloride (Tocris Bioscience, cat. 1254). The K12877-001-R-J1-PDC line was cultured in 6I media, which includes all 6C/Colon 1B media plus 10 ng/mL human FGF-10 (PeproTech, cat. 100-26), 1 ng/mL human FGF-2 (PeproTech, cat. 100-18B), 1 µM prostaglandin E2 (Tocris Bioscience, cat. 2296), […] hydrocortisone (Sigma-Aldrich, cat. H4001), and […] bovine insulin (Sigma-Aldrich, cat. I6634). The K86415-001-R-J1-PDC line was cultured in 6D media, which includes all 6C/Colon 1B media components minus the L-WRN conditioned media. The 485176-168-R4-J1-PDC was cultured in PANC media, which includes all 6C/Colon 1B media plus 100 ng/mL human FGF-10 (PeproTech, cat. 100-26), 500 nM SB-431542 (Selleckchem, cat. S1067), and 10 nM gastrin (Tocris Bioscience, cat. 3006). […]

The mark [1] stands for this setting: compound alone, run of 06/10/2024.
Setting [2] is: compound alone, run of 05/20/2024.
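Also: spheroids exposed to compounds for 7 days before viability read.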

Turning to `C#Cc1c(F)ccc2cc(O)cc(-c3ncc4c(N5CC6CCC(C5)N6)nc(OCC56CCCN5CC(F)C6)nc4c3F)c12` (configuration not stated), the viability, T/C is 70% [middle of 8 runs] (compound 0.0316 µM); 62.6% [middle of 8 runs] (compound 0.1 µM); 32.4% [middle of 8 runs] (compound 0.316 µM); 18.4% [middle of 8 runs] (compound 1 µM); 12.2% [middle of 8 runs] (compound 3.16 µM); 10.1% [middle of 8 runs] (compound 10 µM). Besides, under setting [1], the IC50 was 160 nM [middle of 8 runs].
Take `C=CC(=O)N1CCN(c2nc(OCC3CCCN3C)nc3c(F)c(-c4nc(N)cc(C)c4C(F)(F)F)c(Cl)cc23)C(C)C1` (configuration not stated): the viability, T/C (compound 0.0316 µM) was 100% [middle of 12 runs]. Besides, the IC50 runs as follows: under setting [1], greater than 1000 nM; (curve of compound) greater than 1000 nM.
Take `C=CC(=O)Nc1cc(Nc2nccc(-c3cn(C)c4ccccc34)n2)c(OC)cc1N(C)CCN(C)C`: the viability, T/C by setting is: (compound 0.00316 µM) 91.2% [middle of 4 runs]; (compound 0.0316 µM) 93.3% [middle of 4 runs]; (compound 0.1 µM) 99.4% [middle of 4 runs]; (compound 0.316 µM) 94.8% [middle of 4 runs]. Where the note is “curve of compound”, the IC50 is greater than 1000 nM.
In the case of `CC(C)NCC(C(=O)N1CCN(c2ncnc3c2C(C)CC3O)CC1)c1ccc(Cl)cc1` (configuration not stated), the viability, T/C is 86% [middle of 4 runs] (compound 0.0316 µM); 89.2% [middle of 4 runs] (compound 0.1 µM); 97.7% [middle of 4 runs] (compound 0.316 µM); 68.8% [middle of 4 runs] (compound 1 µM); 48% [middle of 4 runs] (compound 3.16 µM); 32.2% [middle of 4 runs] (compound 10 µM). The IC50 (curve of compound) is 2.59 µM [middle of 4 runs].
As to `CC(C)n1nc(-c2ccc3oc(N)nc3c2)c2c(N)ncnc21`, the viability, T/C was 107% [middle of 4 runs] (compound 0.000316 µM); 96.7% [middle of 4 runs] (compound 0.001 µM); 101% and 98% and 107% (2×) (compound 0.00316 µM); 92.9% [middle of 4 runs] (compound 0.01 µM); 47.7% [middle of 4 runs] (compound 0.1 µM).
Turning to `CC(Nc1ccc2c(c1)OCCn1cc(N3C(=O)OCC3C(F)F)nc1-2)C(N)=O` (configuration not stated), the viability, T/C is 102% (2×) and 76.1% and 98.5% (compound 0.0316 µM); 91.8% [middle of 4 runs] (compound 0.1 µM); 69.5% [middle of 4 runs] (compound 0.316 µM); 51.2% [middle of 4 runs] (compound 1 µM); 34.3% [middle of 4 runs] (compound 10 µM).
Regarding `CC1(C)CCC(Nc2ncc(C(F)(F)F)c(-c3c[nH]c4c(P(C)(C)=O)c(C#N)ccc34)n2)CN1` (configuration not stated), the viability, T/C (compound 0.000949 µM) is 89.9% [middle of 4 runs]; the viability, T/C (compound 0.003 µM) was 102% and 101% (2×) and 97%; the viability, T/C (compound 0.00949 µM) is 99.2% [middle of 4 runs]; the viability, T/C (compound 0.0949 µM) was 60.8% and 56.4% (2×) and 71.4%; the viability, T/C (compound 0.3 µM) is 63.9% [middle of 4 runs]. Under “curve of compound”, the IC50 is > 300 nM and 287 nM and 197 nM.
As for `CC1(O)CCCC1n1c(=O)c(C(F)F)cc2cnc(NC3CCN(S(C)(=O)=O)CC3)nc21` (configuration not stated), the viability, T/C is 108% [middle of 4 runs] (compound 0.0316 µM), 114% [middle of 4 runs] (compound 0.1 µM), 83.6% [middle of 4 runs] (compound 3.16 µM) and 2.71% [middle of 4 runs] (compound 10 µM). Further, the IC50 (curve of compound) was 4.81 µM [middle of 4 runs].
As for `CCN1CCN(Cc2ccc(Nc3ncc(F)c(-c4cc(F)c5nc(C)n(C(C)C)c5c4)n3)nc2)CC1`, the viability, T/C reads like this: (compound 0.01 µM) 102% (3×) and 98.7%; (compound 0.1 µM) 127% [middle of 4 runs]. The IC50 (curve of compound) was greater than 1000 nM.
For the compound `CCc1c2c(nc3ccc(O)cc13)-c1cc3c(c(=O)n1C2)COC(=O)[C@]3(O)CC`, the viability, T/C reads like this: (compound 0.00949 µM) 71.8% [middle of 4 runs]; (compound 0.03 µM) 47.5% [middle of 4 runs]; (compound 0.0949 µM) 18.6% [middle of 4 runs]; (compound 0.3 µM) 15.9% [middle of 4 runs].
Turning to `CCn1c(-c2cc(N3CCN(C)CC3)cnc2C(C)OC)c2c3cc(ccc31)-c1csc(n1)CC(NC(=O)C1CC1C)C(=O)N1CCCC(N1)C(=O)OCC(C)(C)C2` (configuration not stated), the viability, T/C is, setting by setting: (compound 0.000949 µM) 105% [middle of 8 runs]; (compound 0.00949 µM) 55.2% [middle of 8 runs]; (compound 0.03 µM) 15.2% [middle of 8 runs]; (compound 0.0949 µM) 7.7% [middle of 7 runs]; (compound 0.3 µM) 6.43% [middle of 8 runs]. Further, the IC50 under setting [2] is 10.4 nM [middle of 8 runs].
As for `CCn1c(-c2cccnc2C(C)OC)c2c3cc(ccc31)N1CCOC(CC(NC(=O)C(C(C)C)N(C)C(=O)C3(F)CCN(C(=O)C#CC(C)(C)N(C)C)CC3)C(=O)N3CCCC(N3)C(=O)OCC(C)(C)C2)C1` (configuration not stated), the viability, T/C (compound 0.000949 µM) is 96.7% [middle of 8 runs]; the viability, T/C (compound 0.003 µM) was 96.3% [middle of 8 runs]; the viability, T/C (compound 0.03 µM) is 102% [middle of 8 runs]; the viability, T/C (compound 0.3 µM) was 103% [middle of 8 runs]. Under setting [2], the IC50 is greater than 300 nM.
As to `C[C@@H](NC(=O)c1ncnc(N)c1Cl)c1ncc(C(=O)Nc2cc(C(F)(F)F)c(Cl)cn2)s1`, the viability, T/C by setting is: (compound 0.0316 µM) 99.8% [middle of 4 runs]; (compound 0.1 µM) 93.7% [middle of 4 runs]; (compound 0.316 µM) 102% [middle of 4 runs]; (compound 1 µM) 91.9% [middle of 4 runs]; (compound 3.16 µM) 104% [middle of 4 runs]; (compound 10 µM) 79.8% [middle of 4 runs]. In addition, the IC50 (curve of compound) is greater than 10000 nM.
Take `Nc1ccn(C2OC(CO)C(O)C2(F)F)c(=O)n1` (configuration not stated): the viability, T/C is 57.2% [middle of 4 runs] (compound 0.00316 µM); 12.7% [middle of 4 runs] (compound 0.01 µM); 12% [middle of 4 runs] (compound 0.0316 µM); 12.9% [middle of 4 runs] (compound 0.1 µM); 10.6% [middle of 4 runs] (compound 0.316 µM); 12.1% [middle of 4 runs] (compound 1 µM). The IC50 (curve of compound) was 3.81 nM [middle of 4 runs].
`O=C(c1ccc(F)c(F)c1Nc1ccc(I)cc1F)N1CC(O)([C@@H]2CCCCN2)C1`: the viability, T/C (compound 0.00316 µM) is 102% [middle of 4 runs]; the viability, T/C (compound 0.01 µM) is 93.3% [middle of 4 runs]; the viability, T/C (compound 0.0316 µM) is 94.1% [middle of 4 runs]; the viability, T/C (compound 0.1 µM) is 39.6% [middle of 4 runs]; the viability, T/C (compound 0.316 µM) is 9.71% [middle of 4 runs]; the viability, T/C (compound 1 µM) was 5.17% [middle of 4 runs]. In addition, the IC50 (curve of compound) is 79.7 nM [middle of 4 runs].
